This note sets out measurements from BindingDB's records for doi:10.7270/Q2T15221 (Nmmlsc, 2010).

SMILES strings stand for the structures.

For orientation: EC50 means the midpoint of the concentration-response curve. High values mean weaker potency, low ones greater potency.

Sequence of Ras-related protein Rab-2A (P61105 whole entry): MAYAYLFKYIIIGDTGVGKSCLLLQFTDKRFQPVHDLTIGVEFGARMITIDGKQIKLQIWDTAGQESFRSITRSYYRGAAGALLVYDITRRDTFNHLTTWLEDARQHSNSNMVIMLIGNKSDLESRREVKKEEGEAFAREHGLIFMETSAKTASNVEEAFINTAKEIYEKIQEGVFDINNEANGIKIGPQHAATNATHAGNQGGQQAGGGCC

The assay has as its target Ras-related protein Rab-2A (Canis lupus familiaris, UniProt P61105). Nature of the assay: potency of blocking fluorescent GTP on Rab2A – biochemical, GST-Rab2 beads, Bodipy-FL-GTP, flow cytometry, multiplex, dose response (AID 1337). Background: A flow cytometer gives signals particle by particle.
Consider `O=C(O)c1ccccc1Sc1ncnc2sc3c(c12)CCC3`, for which a half-maximal effect (EC50) was put at 2.76 µM. In other words, the single-digit micromolar range.
The figure for `OC(CNCCc1c[nH]c2ccccc12)Cn1c2ccc(Cl)cc2c2cc(Cl)ccc21` (stereo not drawn) [1-(3,6-dichloro-9-carbazolyl)-3-[2-(3H-indol-3-yl)ethylamino]-2-propanol] is 26.3 µM.
In the case of `Cc1nn(Cc2ccccc2)c(Cl)c1C(=O)O` [1-benzyl-5-chloro-3-methyl-pyrazole-4-carboxylic acid], the EC50 worked out at 4.88 µM. Against the preceding compound, the EC50 is about 5.4-fold lower.
The figure for `Cc1cc(C)c(C)c(C(=O)c2ccccc2C(=O)O)c1C` [2-(2,3,5,6-tetramethylbenzoyl)benzoic acid] is 6.26 µM; for `O=C(O)c1ccccc1NCCc1ccc(Cl)cc1` [2-[2-(4-chlorophenyl)ethylamino]benzoic acid] it is 0.741 µM.
`Cc1ccc(C2=NN(S(=O)(=O)c3ccccc3)C(c3ccccc3O)C2)cc1` (stereo not drawn) [2-[2-(benzenesulfonyl)-5-(4-methylphenyl)-3,4-dihydropyrazol-3-yl]phenol]: the response was half-maximal at 1.69 µM (EC50). Against the preceding compound, the EC50 is about 2.3-fold higher.
The figure for `CC(C)C(NCc1c(Cl)cccc1Cl)C(=O)O` (stereo not drawn) [2-[(2,6-dichlorobenzyl)amino]-3-methyl-butyric acid] is 5.37 µM; for `COC(=O)c1c(-n2c(O)c3c(c2O)[C@]2(C(=O)Nc4c(C)cc(C)cc42)N2CCC[C@@H]32)sc(C)c1C` [2-[(3S,3'aR,8'aS,8'bS)-5,7-dimethyl-1',2,3'-trioxo-2'-spiro[1H-indole-3,4'-3a,6,7,8,8a,8b-hexahydropyrrolo[3,4-a]pyrrolizine]yl]-4,5-dimethyl-3-thiophenecarboxylic acid methyl ester] it is 1.99 µM.
In the case of `COc1ccc(C2CC(c3ccccc3)=NN2c2ccc(S(N)(=O)=O)cc2)cc1` (stereo not drawn) [4-[3-(4-methoxyphenyl)-5-phenyl-3,4-dihydropyrazol-2-yl]benzenesulfonamide], the EC50 was determined as 0.704 µM.
The figure for `COc1ccc(-c2cc(C#N)nc(N3CCNCC3)n2)cc1` [6-(4-Methoxy-phenyl)-2-piperazin-1-yl-pyrimidine-4-carbonitrile] is 30.9 µM.
The figure for `O=C1C([N+](=O)[O-])=Cc2oc3c(c2C1/C=N/Cc1ccccc1)CCCC3` (stereo not drawn) [(1Z)-3-nitro-1-[[(phenylmethyl)amino]methylidene]-6,7,8,9-tetrahydrodibenzofuran-2-one] is 4.02 µM; for `CCOc1ccc(/C=C2\SC(N3CCc4ccccc4C3)=NC2=O)cc1` [(5Z)-2-(3,4-dihydro-1H-isoquinolin-2-yl)-5-(4-ethoxybenzylidene)-2-thiazolin-4-one] it is 35.9 µM; for `CCCN1C(=O)/C(=C/C=C2\N(CC)c3ccccc3C2(C)C)SC1=S` [(5Z)-5-[(2Z)-2-(1-ethyl-3,3-dimethyl-2-indolylidene)ethylidene]-3-propyl-2-sulfanylidene-4-thiazolidinone] it is 5.42 µM.
In turn, `O=C(O)/C=C/c1cn(Cc2ccccc2)nc1-c1cccs1` [(E)-3-(1-benzyl-3-thiophen-2-ylpyrazol-4-yl)prop-2-enoic acid] had a concentration for a half-maximal effect (EC50) of 3.64 µM.
Under `Cc1ccccc1NC(=O)C1CCCN1S(=O)(=O)c1cccc2cccnc12` (stereo not drawn) [MLS000119085] stands 3.45 µM; under `N=C(N)NS(=O)(=O)c1ccc(NC(=S)NC(=O)c2ccc3c(c2)OCO3)cc1` [MLS000621545], 0.738 µM.
In turn, `CCS(=O)(=O)N1N=C(c2cccc(NS(C)(=O)=O)c2)CC1c1ccc(C)cc1` (stereo not drawn) [MLS000680398] registered an EC50 of 2.67 µM. Against the preceding compound, the EC50 is about 3.6-fold higher.
Take `COCCn1c(=S)[nH]c2cc(C(=O)N3CCc4ccccc4C3)ccc2c1=O` [SMR000310652]: the EC50 stood at 0.851 µM. Compared with the last compound, the EC50 is about 3.1-fold lower.
